Experiments:
[1] = target: T1, FLT3(K663Q) (Homo sapiens, UniProt P36888, K663Q); type: binding
T1 sequence (P36888 27-993 K663Q): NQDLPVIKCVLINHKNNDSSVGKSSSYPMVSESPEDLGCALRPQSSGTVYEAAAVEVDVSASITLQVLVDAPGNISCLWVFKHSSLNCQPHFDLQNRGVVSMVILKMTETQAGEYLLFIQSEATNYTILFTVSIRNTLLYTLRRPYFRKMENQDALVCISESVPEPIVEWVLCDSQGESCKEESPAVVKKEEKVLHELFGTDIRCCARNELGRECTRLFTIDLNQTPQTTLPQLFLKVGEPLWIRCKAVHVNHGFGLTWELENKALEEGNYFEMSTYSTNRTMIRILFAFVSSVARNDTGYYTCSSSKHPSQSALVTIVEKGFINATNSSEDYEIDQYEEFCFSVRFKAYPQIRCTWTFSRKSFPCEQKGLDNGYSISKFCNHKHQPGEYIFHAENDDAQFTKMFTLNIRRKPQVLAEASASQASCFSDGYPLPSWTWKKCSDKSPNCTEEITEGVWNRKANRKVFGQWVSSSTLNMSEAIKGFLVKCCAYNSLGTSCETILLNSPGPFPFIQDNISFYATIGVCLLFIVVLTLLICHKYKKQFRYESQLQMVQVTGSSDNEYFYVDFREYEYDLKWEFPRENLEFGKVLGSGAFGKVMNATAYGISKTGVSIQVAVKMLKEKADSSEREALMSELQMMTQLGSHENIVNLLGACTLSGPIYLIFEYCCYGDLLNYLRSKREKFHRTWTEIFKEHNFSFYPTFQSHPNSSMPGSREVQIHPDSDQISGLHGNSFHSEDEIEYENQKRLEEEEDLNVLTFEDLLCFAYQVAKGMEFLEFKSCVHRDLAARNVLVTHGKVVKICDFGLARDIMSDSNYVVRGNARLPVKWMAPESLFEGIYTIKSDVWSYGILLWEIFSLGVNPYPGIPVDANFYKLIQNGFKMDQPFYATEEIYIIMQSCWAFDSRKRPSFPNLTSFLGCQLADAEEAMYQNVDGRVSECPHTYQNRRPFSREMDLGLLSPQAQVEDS

[2] = target: T2, FLT3(ITD, F691L) (Homo sapiens, UniProt P36888, F691L, form not given); type: binding
T2 construct: fused on or other part: DNA tag for the qPCR read-out (the KINOMEscan format)
T2 sequence (P36888 1-993 F691L): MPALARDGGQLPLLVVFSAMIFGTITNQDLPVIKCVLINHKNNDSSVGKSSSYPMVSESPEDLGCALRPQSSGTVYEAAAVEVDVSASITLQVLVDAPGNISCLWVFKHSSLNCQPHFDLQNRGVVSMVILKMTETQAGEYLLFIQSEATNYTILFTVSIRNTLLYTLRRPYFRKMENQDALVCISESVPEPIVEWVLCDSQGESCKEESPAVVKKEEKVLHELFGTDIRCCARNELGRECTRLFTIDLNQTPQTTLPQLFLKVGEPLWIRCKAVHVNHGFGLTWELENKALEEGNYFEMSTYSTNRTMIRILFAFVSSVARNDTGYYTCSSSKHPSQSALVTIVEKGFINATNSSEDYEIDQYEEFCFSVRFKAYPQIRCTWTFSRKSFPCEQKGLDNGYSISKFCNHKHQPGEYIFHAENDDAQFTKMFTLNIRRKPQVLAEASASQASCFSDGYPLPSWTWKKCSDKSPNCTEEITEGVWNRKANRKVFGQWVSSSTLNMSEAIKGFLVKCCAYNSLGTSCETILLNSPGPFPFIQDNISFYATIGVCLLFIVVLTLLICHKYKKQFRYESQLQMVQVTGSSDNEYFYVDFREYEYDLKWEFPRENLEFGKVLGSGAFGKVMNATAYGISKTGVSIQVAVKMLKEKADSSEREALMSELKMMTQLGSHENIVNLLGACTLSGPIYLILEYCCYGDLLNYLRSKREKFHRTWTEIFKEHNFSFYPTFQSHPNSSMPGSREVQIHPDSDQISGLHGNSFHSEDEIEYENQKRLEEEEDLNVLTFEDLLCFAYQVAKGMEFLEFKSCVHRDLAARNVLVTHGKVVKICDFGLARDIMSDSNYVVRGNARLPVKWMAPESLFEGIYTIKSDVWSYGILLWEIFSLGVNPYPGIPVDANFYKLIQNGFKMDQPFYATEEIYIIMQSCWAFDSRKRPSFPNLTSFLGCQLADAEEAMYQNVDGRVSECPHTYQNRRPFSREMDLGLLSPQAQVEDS

CCc1nc(C(N)=O)c(Nc2ccc(N3CCC4(CCN(C)CC4)CC3)c(C)c2)nc1NC1CCOCC1.O=C(O)C(F)(F)F
Kd ([1]; FLT3(K663Q)): 10 nM
activity higher than that of the known compound B ([1]; FLT3 (K663Q), ratio of Kd versus compound B): 5.9 times
Kd ([2]; FLT3(ITD, F691L)): 0.21 nM
activity higher than that of the known compound B ([2]; FLT3 (ITD, F691L), ratio of Kd versus compound B): 3.6 times
